Data on three compounds can be found in PMC10893275, “A System for Discovering Novel Uricosurics Targeting Urate Transporter 1 Based on In Vitro and In Vivo Modeling” (Pharmaceutics, 2024).

For assay [1], the target named is T1, urate transporter 1 (URAT1) (Homo sapiens, UniProt Q96S37).
T1 construct: gene SLC22A12
T1 sequence (Q96S37 1-553): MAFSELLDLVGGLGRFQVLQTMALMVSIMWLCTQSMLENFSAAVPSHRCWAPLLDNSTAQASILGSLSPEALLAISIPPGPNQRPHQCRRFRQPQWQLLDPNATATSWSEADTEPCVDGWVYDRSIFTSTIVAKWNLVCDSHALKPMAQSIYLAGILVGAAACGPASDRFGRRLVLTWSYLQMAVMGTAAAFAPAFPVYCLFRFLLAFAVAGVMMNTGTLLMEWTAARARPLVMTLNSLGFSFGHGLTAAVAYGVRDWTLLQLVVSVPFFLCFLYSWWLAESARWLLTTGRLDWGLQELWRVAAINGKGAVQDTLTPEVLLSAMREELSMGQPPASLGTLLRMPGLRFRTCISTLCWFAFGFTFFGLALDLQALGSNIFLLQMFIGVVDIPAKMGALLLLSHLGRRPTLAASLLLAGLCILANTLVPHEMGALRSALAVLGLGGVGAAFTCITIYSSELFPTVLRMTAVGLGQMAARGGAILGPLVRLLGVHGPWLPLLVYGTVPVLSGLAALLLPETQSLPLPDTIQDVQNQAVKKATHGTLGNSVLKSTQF
Put plainly: non-isotopic uric acid uptake inhibition in URAT1-overexpressing HEK293 cells. The assay is classed as cell-based.

The target of assay [2] is T2, xanthine oxidoreductase (XOR) (Bos taurus, UniProt P80457).
T2 construct: gene XDH
T2 sequence (P80457 2-1332): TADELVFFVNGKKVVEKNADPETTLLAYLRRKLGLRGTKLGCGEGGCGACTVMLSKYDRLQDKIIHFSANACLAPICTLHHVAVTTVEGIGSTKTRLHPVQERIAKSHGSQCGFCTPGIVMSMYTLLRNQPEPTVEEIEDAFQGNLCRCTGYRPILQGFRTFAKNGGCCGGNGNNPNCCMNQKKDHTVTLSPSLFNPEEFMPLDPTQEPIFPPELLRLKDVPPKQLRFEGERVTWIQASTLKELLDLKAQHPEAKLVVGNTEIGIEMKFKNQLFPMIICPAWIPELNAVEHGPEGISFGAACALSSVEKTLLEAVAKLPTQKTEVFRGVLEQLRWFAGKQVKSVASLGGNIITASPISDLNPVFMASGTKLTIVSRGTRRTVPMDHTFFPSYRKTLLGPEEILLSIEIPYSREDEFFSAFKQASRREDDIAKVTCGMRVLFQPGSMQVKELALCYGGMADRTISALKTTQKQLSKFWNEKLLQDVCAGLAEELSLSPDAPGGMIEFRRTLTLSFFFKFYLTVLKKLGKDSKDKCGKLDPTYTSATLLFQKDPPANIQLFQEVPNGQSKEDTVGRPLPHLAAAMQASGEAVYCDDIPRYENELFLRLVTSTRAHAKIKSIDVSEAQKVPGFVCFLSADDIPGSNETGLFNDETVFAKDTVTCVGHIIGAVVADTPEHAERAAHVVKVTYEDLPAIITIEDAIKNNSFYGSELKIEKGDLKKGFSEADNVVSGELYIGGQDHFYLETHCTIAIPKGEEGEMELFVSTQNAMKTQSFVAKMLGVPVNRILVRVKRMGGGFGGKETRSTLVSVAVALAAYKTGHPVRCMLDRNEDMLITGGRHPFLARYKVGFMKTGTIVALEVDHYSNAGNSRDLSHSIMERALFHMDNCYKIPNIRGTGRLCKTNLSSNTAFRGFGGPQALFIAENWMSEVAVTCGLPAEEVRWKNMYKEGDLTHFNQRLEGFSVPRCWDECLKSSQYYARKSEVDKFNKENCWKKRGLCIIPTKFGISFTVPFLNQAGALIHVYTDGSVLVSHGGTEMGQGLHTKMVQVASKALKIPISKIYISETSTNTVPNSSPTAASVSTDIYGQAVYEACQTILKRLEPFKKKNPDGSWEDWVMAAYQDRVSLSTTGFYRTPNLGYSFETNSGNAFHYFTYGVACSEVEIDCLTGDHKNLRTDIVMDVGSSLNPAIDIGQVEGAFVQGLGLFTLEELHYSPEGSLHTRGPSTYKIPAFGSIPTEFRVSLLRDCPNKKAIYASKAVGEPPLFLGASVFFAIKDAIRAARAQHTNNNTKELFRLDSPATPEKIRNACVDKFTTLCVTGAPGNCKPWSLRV

The target of assay [3] is T1, urate transporter 1 (URAT1). Put plainly: non-isotopic uric acid uptake inhibition in URAT1-overexpressing HEK293 cells (positive control drug). The assay is classed as cell-based.

What is called IC50 is the midpoint of a concentration-inhibition curve. `O=C(O)C1(Sc2ccccc2N2CCOc3ccccc32)CCC1` [CC18002] had an IC50 in assay [1] of 1690 nM. In the case of `Cc1nc(-c2ccc(OCC(C)C)c(C#N)c2)sc1C(=O)O` [febuxostat], the “% inhibition at 0.1 μM” value in assay [2] amounted to 94.8.

Turning to `O=C(O)C1(Sc2ccnc3ccc(Br)cc23)CCC1` [SHR4640], the IC50 in assay [3] was 130 nM.
